Laboratory results published in ChEMBL document CHEMBL5506020 (J Med Chem, 2024).
Activity calls are given as the source filed them. The calls are words filed in the database; no cut-off is given here.

Key:
MV4-11 = experiment: Antiproliferative activity against human MV4-11 cells incubated for 120 hrs by Cell-Titer Glo assay; details: MV4-11, 120 h
[1] = target: Protein cereblon/Histone acetyltransferase p300 (Homo sapiens) (UniProt Q09472+Q96SW2); experiment: PROTAC activity at CRBN/p300 in human MV4-11 cells assessed as p300 degradation at 10 to 50 nM incubated for 24 hrs by Western blotting analysis; assay type: cell-based; details: dose 10-50 nM
Chain of Protein cereblon/Histone acetyltransferase p300 (Homo sapiens) (Q09472 2-2414 limits assumed): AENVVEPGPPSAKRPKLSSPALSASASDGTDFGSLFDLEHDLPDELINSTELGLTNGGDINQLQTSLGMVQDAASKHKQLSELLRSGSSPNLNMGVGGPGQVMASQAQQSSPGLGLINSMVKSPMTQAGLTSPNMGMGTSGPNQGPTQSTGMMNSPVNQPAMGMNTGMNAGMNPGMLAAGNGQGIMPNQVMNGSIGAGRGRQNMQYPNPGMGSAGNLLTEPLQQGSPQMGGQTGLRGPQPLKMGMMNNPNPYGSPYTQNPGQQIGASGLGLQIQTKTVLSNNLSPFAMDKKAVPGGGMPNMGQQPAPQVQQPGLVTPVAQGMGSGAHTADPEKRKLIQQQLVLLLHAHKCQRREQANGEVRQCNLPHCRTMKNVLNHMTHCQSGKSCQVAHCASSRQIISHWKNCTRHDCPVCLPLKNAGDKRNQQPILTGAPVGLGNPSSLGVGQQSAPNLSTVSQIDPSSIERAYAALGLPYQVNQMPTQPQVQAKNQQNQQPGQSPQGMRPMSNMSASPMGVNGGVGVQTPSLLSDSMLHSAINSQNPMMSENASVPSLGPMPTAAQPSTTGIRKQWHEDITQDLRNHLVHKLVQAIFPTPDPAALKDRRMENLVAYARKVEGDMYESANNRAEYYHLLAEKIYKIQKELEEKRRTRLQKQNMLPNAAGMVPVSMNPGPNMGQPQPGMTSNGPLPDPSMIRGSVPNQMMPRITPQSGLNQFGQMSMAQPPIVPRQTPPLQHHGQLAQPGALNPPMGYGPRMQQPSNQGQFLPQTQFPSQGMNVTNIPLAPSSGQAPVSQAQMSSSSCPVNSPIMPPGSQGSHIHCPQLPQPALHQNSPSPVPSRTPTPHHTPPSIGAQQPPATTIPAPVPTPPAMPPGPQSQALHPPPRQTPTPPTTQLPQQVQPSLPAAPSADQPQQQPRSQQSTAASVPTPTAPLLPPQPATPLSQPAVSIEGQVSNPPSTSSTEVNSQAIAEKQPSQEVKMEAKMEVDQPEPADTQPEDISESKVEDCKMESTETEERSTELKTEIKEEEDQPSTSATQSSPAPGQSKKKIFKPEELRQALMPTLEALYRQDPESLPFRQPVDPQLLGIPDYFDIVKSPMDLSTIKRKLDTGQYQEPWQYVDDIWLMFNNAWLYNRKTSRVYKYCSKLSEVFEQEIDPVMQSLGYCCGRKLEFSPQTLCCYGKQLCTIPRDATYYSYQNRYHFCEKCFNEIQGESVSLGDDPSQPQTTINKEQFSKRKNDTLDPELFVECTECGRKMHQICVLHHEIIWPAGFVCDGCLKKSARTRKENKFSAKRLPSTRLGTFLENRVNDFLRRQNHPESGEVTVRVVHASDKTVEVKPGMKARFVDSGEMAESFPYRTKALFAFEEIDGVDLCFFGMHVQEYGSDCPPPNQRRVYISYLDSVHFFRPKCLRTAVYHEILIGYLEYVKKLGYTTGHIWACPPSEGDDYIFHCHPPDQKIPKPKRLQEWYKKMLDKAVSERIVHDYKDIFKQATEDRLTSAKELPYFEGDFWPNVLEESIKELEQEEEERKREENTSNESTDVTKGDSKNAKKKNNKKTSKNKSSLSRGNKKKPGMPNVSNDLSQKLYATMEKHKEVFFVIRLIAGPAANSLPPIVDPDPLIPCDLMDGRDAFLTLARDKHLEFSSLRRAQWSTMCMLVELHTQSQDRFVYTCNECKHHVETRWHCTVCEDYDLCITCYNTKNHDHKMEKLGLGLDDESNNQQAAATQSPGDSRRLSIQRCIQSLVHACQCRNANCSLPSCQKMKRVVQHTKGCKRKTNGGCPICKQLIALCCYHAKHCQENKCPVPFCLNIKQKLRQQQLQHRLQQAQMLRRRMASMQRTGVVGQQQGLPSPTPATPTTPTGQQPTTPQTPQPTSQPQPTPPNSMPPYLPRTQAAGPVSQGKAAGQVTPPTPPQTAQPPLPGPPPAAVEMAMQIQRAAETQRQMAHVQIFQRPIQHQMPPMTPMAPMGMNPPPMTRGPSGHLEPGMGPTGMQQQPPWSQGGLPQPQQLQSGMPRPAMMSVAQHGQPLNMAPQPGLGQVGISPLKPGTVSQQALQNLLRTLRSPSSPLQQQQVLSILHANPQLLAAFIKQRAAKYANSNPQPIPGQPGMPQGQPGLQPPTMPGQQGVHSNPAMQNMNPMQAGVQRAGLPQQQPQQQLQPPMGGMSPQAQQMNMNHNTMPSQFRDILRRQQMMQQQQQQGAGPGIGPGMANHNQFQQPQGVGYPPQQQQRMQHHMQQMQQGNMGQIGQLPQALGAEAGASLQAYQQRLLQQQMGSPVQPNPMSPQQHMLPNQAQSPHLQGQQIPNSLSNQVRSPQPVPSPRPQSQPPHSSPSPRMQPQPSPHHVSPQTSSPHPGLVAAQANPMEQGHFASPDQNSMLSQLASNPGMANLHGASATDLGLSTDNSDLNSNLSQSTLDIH
Chain of Protein cereblon/Histone acetyltransferase p300 (Homo sapiens) (Q96SW2 whole entry partner): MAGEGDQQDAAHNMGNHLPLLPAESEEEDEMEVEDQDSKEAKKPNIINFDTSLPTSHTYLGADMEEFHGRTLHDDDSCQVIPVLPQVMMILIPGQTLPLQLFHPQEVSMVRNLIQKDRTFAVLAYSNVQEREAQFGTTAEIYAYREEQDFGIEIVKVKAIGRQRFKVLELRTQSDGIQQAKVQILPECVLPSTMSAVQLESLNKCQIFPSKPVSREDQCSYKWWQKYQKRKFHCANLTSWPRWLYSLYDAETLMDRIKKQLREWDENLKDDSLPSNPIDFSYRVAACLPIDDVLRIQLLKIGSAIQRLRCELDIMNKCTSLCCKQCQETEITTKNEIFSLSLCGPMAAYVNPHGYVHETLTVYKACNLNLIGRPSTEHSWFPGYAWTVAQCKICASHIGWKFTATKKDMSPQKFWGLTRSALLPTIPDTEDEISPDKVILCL

| IC50 (MV4-11) [nM] | Activity [1] | Compound |
| --- | --- | --- |
| 223 | inactive | Cc1noc(C)c1-c1ccc2c(c1)nc([C@@H]1CCCC(=O)N1c1ccc(F)c(F)c1)n2C1CCN(CC(=O)N2CCN(CCNc3cccc4c3C(=O)N(C3CCC(=O)NC3=O)C4=O)CC2)CC1 (stereo not given in full) |
| 1800 | inactive | Cc1noc(C)c1-c1ccc2c(c1)nc([C@@H]1CCCC(=O)N1c1ccc(F)c(F)c1)n2C1CCN(CC(=O)NCCNc2ccc3c(c2)C(=O)N(C2CCC(=O)NC2=O)C3=O)CC1 (stereo not given in full) |
| 525 | Active | Cc1noc(C)c1-c1ccc2c(c1)nc([C@@H]1CCCC(=O)N1c1ccc(F)c(F)c1)n2C1CCN(CC(=O)NCCCCCCCNc2cccc3c2C(=O)N(C2CCC(=O)NC2=O)C3=O)CC1 (stereo not given in full) |
| 30.1 | Active | Cc1noc(C)c1-c1ccc2c(c1)nc([C@@H]1CCCC(=O)N1c1ccc(F)c(F)c1)n2C1CCN(CC(=O)Nc2ccc(C3CCN(c4cccc5c4C(=O)N(C4CCC(=O)NC4=O)C5=O)CC3)cc2)CC1 (stereo not given in full) |
| 1140 | – | Cc1noc(C)c1-c1ccc2c(c1)nc([C@@H]1CCCC(=O)N1c1ccc(F)c(F)c1)n2C1CCN(CC(=O)NCC#Cc2cccc3c2C(=O)N(C2CCC(=O)NC2=O)C3=O)CC1 (stereo not given in full) |
| 6060 | inactive | Cc1noc(C)c1-c1ccc2c(c1)nc([C@@H]1CCCC(=O)N1c1ccc(F)c(F)c1)n2C1CCN(CC(=O)NCCOCCOCCNc2ccc3c(c2)C(=O)N(C2CCC(=O)NC2=O)C3=O)CC1 (stereo not given in full) |
| 2020 | – | Cc1noc(C)c1-c1ccc2c(c1)nc([C@@H]1CCCC(=O)N1c1ccc(F)c(F)c1)n2C1CCN(CC(=O)NCCOCCOCCOCCNc2cccc3c2C(=O)N(C2CCC(=O)NC2=O)C3=O)CC1 (stereo not given in full) |
| 1220 | Active | Cc1noc(C)c1-c1ccc2c(c1)nc([C@@H]1CCCC(=O)N1c1ccc(F)c(F)c1)n2C1CCN(CC(=O)NCc2ccc(CNc3cccc4c3C(=O)N(C3CCC(=O)NC3=O)C4=O)cc2)CC1 (stereo not given in full) |
| 1900 | – | Cc1noc(C)c1-c1ccc2c(c1)nc([C@@H]1CCCC(=O)N1c1ccc(F)c(F)c1)n2C1CCN(CC(=O)NCCOCCNc2cccc3c2C(=O)N(C2CCC(=O)NC2=O)C3=O)CC1 (stereo not given in full) |
| 1760 | – | Cc1noc(C)c1-c1ccc2c(c1)nc([C@@H]1CCCC(=O)N1c1ccc(F)c(F)c1)n2C1CCN(CC(=O)N2CCC(Nc3cccc4c3C(=O)N(C3C(=O)CCNC3=O)C4=O)CC2)CC1 (stereo not given in full) |
| 112 | – | Cc1noc(C)c1-c1ccc2c(c1)nc([C@@H]1CCCC(=O)N1c1ccc(F)c(F)c1)n2C1CCN(CC(=O)N2CCC(N3CCC(Nc4cccc5c4C(=O)N(C4CCC(=O)NC4=O)C5=O)CC3)CC2)CC1 (stereo not given in full) |
| 980 | – | Cc1noc(C)c1-c1ccc2c(c1)nc([C@@H]1CCCC(=O)N1c1ccc(F)c(F)c1)n2C1CCN(CC(=O)NCC2CCN(c3cccc4c3C(=O)N(C3CCC(=O)NC3=O)C4=O)CC2)CC1 (stereo not given in full) |
| 165 | – | Cc1noc(C)c1-c1ccc2c(c1)nc([C@@H]1CCCC(=O)N1c1ccc(F)c(F)c1)n2C1CCN(C)CC1 |
| 1740 | – | Cc1noc(C)c1-c1ccc2c(c1)nc([C@@H]1CCCC(=O)N1c1ccc(F)c(F)c1)n2C1CCN(CC(=O)NC2CCN(c3cccc4c3C(=O)N(C3CCC(=O)NC3=O)C4=O)CC2)CC1 (stereo not given in full) |
| 1700 | – | Cc1noc(C)c1-c1ccc2c(c1)nc([C@@H]1CCCC(=O)N1c1ccc(F)c(F)c1)n2C1CCN(CC(=O)N2CCN(c3cccc4c3C(=O)N(C3CCC(=O)NC3=O)C4=O)CC2)CC1 (stereo not given in full) |
| 1800 | – | Cc1noc(C)c1-c1ccc2c(c1)nc([C@@H]1CCCC(=O)N1c1ccc(F)c(F)c1)n2C1CCN(CC(=O)NCCC#Cc2cccc3c2C(=O)N(C2CCC(=O)NC2=O)C3=O)CC1 (stereo not given in full) |
| 1680 | – | Cc1noc(C)c1-c1ccc2c(c1)nc([C@@H]1CCCC(=O)N1c1ccc(F)c(F)c1)n2C1CCN(CC(=O)NCCOCCOCCNc2cccc3c2C(=O)N(C2CCC(=O)NC2=O)C3=O)CC1 (stereo not given in full) |
| 1170 | – | Cc1noc(C)c1-c1ccc2c(c1)nc([C@@H]1CCCC(=O)N1c1ccc(F)c(F)c1)n2C1CCN(CC(=O)NCCC2CCN(c3cccc4c3C(=O)N(C3CCC(=O)NC3=O)C4=O)CC2)CC1 (stereo not given in full) |
| 1720 | – | Cc1noc(C)c1-c1ccc2c(c1)nc([C@@H]1CCCC(=O)N1c1ccc(F)c(F)c1)n2C1CCN(CC(=O)NCCCC#Cc2cccc3c2C(=O)N(C2CCC(=O)NC2=O)C3=O)CC1 (stereo not given in full) |
